{"source": "patent US20220194940A1", "about": "“HETEROCYCLIC INHIBITORS OF TYROSINE KINASE” (Board of Regents, The University of Texas System, priority 2019, published 2022)", "assay_type_in_all_cases": "cell-based", "key": {"EGFR A767insASV": {"target": "EGFR A767insASV (Homo sapiens, UniProt P00533, cells depend on it, form not given)", "test": "Ba/F3 cell viability, EGFR A767insASV", "conditions": "logarithm of IC50, second listing in Table 2 (r23)", "procedure": "(§1) 72 hours after transduction, 2 μg/ml puromycin (Invitrogen) was added to the medium."}, "EGFR A767insTLA": {"target": "T1, EGFR A767insTLA (Homo sapiens, UniProt P00533, INS767TLA)", "T1 construct": "expressed in transfected cells; host or cells: Ba/F3 (retroviral transduction, pBABE-Puro-based vectors)", "test": "Ba/F3 cell viability, EGFR A767insTLA", "conditions": "logarithm of IC50", "procedure": "as §1"}, "EGFR S768dupSVD/C797S": {"target": "T2, EGFR S768dupSVD/C797S (Homo sapiens, UniProt P00533, C797S/DUP768-770)", "T2 construct": "expressed in transfected cells; host or cells: Ba/F3 (retroviral transduction, pBABE-Puro-based vectors)", "test": "Ba/F3 cell viability, EGFR S768dupSVD/C797S", "conditions": "logarithm of IC50", "procedure": "as §1"}, "EGFR S768dupSVD/T790M": {"target": "T3, EGFR S768dupSVD/T790M (Homo sapiens, UniProt P00533, DUP768-770/T790M)", "T3 construct": "expressed in transfected cells; host or cells: Ba/F3 (retroviral transduction, pBABE-Puro-based vectors)", "test": "Ba/F3 cell viability, EGFR S768dupSVD/T790M", "conditions": "logarithm of IC50", "procedure": "as §1"}, "EGFR WT": {"target": "T4, EGFR WT (Homo sapiens, UniProt P00533)", "T4 construct": "expressed in transfected cells; host or cells: Ba/F3 (retroviral transduction, pBABE-Puro-based vectors)", "T4 sequence (P00533 25-1210)": "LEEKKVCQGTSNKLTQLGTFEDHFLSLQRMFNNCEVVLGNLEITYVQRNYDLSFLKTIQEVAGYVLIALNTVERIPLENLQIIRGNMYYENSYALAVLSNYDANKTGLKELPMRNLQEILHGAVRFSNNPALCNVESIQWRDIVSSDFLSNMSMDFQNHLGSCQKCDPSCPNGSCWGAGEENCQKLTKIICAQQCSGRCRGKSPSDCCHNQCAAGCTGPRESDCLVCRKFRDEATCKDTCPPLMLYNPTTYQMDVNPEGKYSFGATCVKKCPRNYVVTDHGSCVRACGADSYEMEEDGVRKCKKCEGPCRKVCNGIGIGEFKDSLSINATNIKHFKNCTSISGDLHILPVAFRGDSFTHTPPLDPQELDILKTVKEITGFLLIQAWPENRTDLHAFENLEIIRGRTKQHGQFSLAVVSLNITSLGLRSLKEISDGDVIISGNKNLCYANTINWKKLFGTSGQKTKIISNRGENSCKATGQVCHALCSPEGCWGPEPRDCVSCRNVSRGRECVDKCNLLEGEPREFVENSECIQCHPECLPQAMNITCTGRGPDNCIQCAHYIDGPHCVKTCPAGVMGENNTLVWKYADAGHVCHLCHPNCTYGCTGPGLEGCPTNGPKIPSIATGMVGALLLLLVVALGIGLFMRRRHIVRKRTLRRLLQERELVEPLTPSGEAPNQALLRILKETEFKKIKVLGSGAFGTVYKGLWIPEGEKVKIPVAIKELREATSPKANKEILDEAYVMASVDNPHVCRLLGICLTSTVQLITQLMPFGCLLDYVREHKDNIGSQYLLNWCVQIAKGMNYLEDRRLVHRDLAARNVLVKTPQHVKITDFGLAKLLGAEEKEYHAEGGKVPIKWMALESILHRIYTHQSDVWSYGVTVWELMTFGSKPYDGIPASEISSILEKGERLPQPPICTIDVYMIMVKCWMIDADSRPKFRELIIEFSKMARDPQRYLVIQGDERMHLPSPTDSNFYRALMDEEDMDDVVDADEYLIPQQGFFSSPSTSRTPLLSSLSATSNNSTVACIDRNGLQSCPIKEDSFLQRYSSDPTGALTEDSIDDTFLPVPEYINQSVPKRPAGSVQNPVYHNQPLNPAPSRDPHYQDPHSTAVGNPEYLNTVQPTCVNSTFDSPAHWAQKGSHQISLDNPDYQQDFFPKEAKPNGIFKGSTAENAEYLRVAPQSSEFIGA", "test": "Ba/F3 cell viability (Cell Titer Glo), WT EGFR", "procedure": "as §1"}, "EGFR N771insSVDNR": {"target": "T5, EGFR N771insSVDNR (Homo sapiens, UniProt P00533, INS771SVDNR)", "T5 construct": "expressed in transfected cells; host or cells: Ba/F3 (retroviral transduction, pBABE-Puro-based vectors)", "T5 sequence (P00533 with tags, fused parts or gaps INS771SVDNR)": "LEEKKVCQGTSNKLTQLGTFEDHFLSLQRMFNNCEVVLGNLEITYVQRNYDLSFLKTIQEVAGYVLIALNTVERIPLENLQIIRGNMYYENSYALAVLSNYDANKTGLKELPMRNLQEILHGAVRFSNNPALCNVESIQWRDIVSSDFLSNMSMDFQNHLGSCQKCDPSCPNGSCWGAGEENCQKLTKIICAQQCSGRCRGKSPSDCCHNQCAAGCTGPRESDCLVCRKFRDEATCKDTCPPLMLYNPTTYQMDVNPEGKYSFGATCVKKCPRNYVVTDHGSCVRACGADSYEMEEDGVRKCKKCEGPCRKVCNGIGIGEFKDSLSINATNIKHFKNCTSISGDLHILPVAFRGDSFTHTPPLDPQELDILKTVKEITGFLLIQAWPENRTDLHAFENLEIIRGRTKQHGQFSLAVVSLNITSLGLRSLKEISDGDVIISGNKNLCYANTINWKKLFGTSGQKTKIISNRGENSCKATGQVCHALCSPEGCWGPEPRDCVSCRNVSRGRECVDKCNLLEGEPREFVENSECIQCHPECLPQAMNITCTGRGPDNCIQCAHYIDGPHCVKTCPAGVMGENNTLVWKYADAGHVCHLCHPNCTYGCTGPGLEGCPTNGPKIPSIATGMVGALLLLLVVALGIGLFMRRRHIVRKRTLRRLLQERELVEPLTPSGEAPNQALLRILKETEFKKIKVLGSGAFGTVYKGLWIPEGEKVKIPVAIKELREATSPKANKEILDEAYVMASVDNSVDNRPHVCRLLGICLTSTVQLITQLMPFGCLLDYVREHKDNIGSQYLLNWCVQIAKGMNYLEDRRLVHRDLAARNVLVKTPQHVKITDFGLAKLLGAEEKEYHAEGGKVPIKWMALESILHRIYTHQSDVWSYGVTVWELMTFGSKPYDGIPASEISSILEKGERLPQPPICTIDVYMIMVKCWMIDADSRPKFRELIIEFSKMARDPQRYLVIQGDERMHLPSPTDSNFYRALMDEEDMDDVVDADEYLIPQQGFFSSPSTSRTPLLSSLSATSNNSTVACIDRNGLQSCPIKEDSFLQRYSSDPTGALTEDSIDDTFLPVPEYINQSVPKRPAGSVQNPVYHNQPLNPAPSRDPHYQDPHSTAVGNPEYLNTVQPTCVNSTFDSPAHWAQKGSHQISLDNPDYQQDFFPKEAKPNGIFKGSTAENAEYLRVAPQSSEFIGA", "test": "Ba/F3 cell viability, EGFR N771insSVDNR", "procedure": "as §1"}, "EGFR P772insDNP": {"target": "T6, EGFR P772insDNP (Homo sapiens, UniProt P00533, INS772DNP)", "T6 construct": "expressed in transfected cells; host or cells: Ba/F3 (retroviral transduction, pBABE-Puro-based vectors)", "test": "Ba/F3 cell viability, EGFR P772insDNP", "conditions": "logarithm of IC50", "procedure": "as §1"}, "EGFR V769L": {"target": "T7, EGFR V769L (Homo sapiens, UniProt P00533, V769L)", "T7 construct": "expressed in transfected cells; host or cells: Ba/F3 (retroviral transduction, pBABE-Puro-based vectors)", "T7 sequence (P00533 25-1210 V769L)": "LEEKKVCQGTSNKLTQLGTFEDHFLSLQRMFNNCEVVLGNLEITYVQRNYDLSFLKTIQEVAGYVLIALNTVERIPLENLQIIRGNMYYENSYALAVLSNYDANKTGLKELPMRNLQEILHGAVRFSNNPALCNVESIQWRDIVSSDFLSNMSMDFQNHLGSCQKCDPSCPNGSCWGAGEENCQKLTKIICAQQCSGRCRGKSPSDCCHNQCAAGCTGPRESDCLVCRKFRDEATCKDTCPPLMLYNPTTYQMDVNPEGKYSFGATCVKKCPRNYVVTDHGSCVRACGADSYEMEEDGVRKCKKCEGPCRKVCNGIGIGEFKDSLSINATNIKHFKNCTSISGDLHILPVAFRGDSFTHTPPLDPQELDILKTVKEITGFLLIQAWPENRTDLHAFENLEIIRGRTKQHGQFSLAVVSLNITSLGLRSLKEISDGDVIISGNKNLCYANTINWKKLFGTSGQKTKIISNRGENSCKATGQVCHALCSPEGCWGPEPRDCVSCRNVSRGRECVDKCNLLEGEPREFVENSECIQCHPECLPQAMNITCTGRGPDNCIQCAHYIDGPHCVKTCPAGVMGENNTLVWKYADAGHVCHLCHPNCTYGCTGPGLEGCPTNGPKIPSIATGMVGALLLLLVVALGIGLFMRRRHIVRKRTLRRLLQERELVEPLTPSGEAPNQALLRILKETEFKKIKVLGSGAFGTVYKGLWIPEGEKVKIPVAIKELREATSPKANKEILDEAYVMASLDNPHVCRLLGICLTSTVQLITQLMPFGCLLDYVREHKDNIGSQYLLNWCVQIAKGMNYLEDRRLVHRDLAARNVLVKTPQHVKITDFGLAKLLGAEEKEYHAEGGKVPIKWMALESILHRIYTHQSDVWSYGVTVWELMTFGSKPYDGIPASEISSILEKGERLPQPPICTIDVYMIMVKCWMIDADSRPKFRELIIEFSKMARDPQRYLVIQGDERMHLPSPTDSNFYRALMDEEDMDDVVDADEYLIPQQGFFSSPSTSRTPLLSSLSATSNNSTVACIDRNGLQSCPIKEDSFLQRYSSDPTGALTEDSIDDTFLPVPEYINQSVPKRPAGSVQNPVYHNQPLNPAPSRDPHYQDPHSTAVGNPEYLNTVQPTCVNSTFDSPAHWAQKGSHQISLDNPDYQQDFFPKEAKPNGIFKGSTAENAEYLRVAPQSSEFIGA", "test": "Ba/F3 cell viability, EGFR V769L", "conditions": "logarithm of IC50", "procedure": "as §1"}, "EGFR N771insHH": {"target": "T8, EGFR N771insHH (Homo sapiens, UniProt P00533, INS771HH)", "T8 construct": "expressed in transfected cells; host or cells: Ba/F3 (retroviral transduction, pBABE-Puro-based vectors)", "T8 sequence (P00533 with tags, fused parts or gaps INS771HH)": "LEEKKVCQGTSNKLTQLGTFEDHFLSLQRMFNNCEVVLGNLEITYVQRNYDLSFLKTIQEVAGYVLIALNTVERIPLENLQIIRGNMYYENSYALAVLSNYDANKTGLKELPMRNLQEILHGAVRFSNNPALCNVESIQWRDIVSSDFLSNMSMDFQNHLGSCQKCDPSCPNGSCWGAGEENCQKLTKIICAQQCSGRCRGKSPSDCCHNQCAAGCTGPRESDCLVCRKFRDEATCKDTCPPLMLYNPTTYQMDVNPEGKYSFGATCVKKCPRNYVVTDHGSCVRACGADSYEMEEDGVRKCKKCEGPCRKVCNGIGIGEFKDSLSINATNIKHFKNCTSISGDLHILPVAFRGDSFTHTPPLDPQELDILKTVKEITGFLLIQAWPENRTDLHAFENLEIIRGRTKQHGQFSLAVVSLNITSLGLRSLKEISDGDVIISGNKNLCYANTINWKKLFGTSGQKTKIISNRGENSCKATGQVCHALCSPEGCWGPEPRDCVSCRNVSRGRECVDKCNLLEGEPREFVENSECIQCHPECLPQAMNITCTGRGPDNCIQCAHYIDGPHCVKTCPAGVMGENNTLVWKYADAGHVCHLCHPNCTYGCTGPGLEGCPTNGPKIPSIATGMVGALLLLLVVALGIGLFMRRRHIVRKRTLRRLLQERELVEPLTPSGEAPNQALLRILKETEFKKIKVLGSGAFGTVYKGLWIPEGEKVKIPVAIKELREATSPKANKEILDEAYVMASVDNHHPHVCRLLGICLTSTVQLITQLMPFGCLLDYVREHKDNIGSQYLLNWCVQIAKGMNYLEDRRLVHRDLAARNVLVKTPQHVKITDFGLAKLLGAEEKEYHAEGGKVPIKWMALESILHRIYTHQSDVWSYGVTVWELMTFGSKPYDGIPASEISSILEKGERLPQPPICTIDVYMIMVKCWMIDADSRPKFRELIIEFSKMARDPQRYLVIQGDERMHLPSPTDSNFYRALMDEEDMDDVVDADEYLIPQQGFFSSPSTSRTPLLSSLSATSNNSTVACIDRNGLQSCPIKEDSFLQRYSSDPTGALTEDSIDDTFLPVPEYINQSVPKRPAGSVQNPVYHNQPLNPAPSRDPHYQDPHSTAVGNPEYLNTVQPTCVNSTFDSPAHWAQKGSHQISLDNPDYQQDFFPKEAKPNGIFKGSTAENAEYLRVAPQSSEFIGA", "test": "Ba/F3 cell viability, EGFR N771insHH", "conditions": "logarithm of IC50", "procedure": "as §1"}, "EGFR H773insAH": {"target": "T9, EGFR H773insAH (Homo sapiens, UniProt P00533, INS773AH)", "T9 construct": "expressed in transfected cells; host or cells: Ba/F3 (retroviral transduction, pBABE-Puro-based vectors)", "test": "Ba/F3 cell viability, EGFR H773insAH", "conditions": "logarithm of IC50", "procedure": "as §1"}, "EGFR V769insGSV": {"target": "T10, EGFR V769insGSV (Homo sapiens, UniProt P00533, INS769GSV)", "T10 construct": "expressed in transfected cells; host or cells: Ba/F3 (retroviral transduction, pBABE-Puro-based vectors)", "test": "Ba/F3 cell viability, EGFR V769insGSV", "conditions": "logarithm of IC50", "procedure": "as §1"}, "EGFR D770del insGY": {"target": "T11, EGFR D770del insGY (Homo sapiens, UniProt P00533, D770Y/INS769G)", "T11 construct": "expressed in transfected cells; host or cells: Ba/F3 (retroviral transduction, pBABE-Puro-based vectors)", "test": "Ba/F3 cell viability, EGFR D770del insGY", "conditions": "logarithm of IC50", "procedure": "as §1"}, "EGFR V769insMASVD": {"target": "T12, EGFR V769insMASVD (Homo sapiens, UniProt P00533, INS769MASVD)", "T12 construct": "expressed in transfected cells; host or cells: Ba/F3 (retroviral transduction, pBABE-Puro-based vectors)", "test": "Ba/F3 cell viability, EGFR V769insMASVD", "conditions": "logarithm of IC50", "procedure": "as §1"}, "EGFR D770insNPG/T790M": {"target": "T13, EGFR D770insNPG/T790M (Homo sapiens, UniProt P00533, INS770NPG/T790M)", "T13 construct": "expressed in transfected cells; host or cells: Ba/F3 (retroviral transduction, pBABE-Puro-based vectors)", "test": "Ba/F3 cell viability, EGFR D770insNPG/T790M", "conditions": "logarithm of IC50", "procedure": "as §1"}, "EGFR D770insNPG/C797S": {"target": "T14, EGFR D770insNPG/C797S (Homo sapiens, UniProt P00533, C797S/INS770NPG)", "T14 construct": "expressed in transfected cells; host or cells: Ba/F3 (retroviral transduction, pBABE-Puro-based vectors)", "test": "Ba/F3 cell viability, EGFR D770insNPG/C797S", "conditions": "logarithm of IC50", "procedure": "as §1"}, "EGFR S768I T790M": {"target": "T15, EGFR S768I T790M (Homo sapiens, UniProt P00533, S768I/T790M)", "T15 construct": "expressed in transfected cells; host or cells: Ba/F3 (retroviral transduction, pBABE-Puro-based vectors)", "test": "Ba/F3 cell viability, EGFR S768I T790M", "conditions": "logarithm of IC50", "procedure": "as §1"}, "EGFR H773L/V774M": {"target": "T16, EGFR H773L/V774M (Homo sapiens, UniProt P00533, H773L/V774M)", "T16 construct": "expressed in transfected cells; host or cells: Ba/F3 (retroviral transduction, pBABE-Puro-based vectors)", "test": "Ba/F3 cell viability, EGFR H773L/V774M", "conditions": "logarithm of IC50", "procedure": "as §1"}, "EGFR V769insGVV": {"target": "T17, EGFR V769insGVV (Homo sapiens, UniProt P00533, INS769GVV)", "T17 construct": "expressed in transfected cells; host or cells: Ba/F3 (retroviral transduction, pBABE-Puro-based vectors)", "test": "Ba/F3 cell viability, EGFR V769insGVV", "conditions": "logarithm of IC50", "procedure": "as §1"}}}
{"smiles": "CN(C)C/C=C/C(=O)Nc1cc2c(Nc3ccc(Cl)c(Br)c3)ncnc2cn1", "note": "[Example 1, (E)-N-(4-((3-Bromo-4-chlorophenyl)amino)pyrido[3,4-d]pyrimidin-6-yl)-4-(dimethylamino)but-2-enamide]", "values": [{"measurement": "Log(IC50, nM)", "setting": "EGFR A767insASV", "value": 0.55, "unit": "nM"}]}
{"smiles": "CN(C)C/C=C/C(=O)Nc1cc2c(Nc3ccc(Cl)c(Cl)c3)ncnc2cn1", "note": "[Example 2, (E)-N-(4-((3,4-dichlorophenyl)amino)pyrido[3,4-d]pyrimidin-6-yl)-4-(dimethylamino)but-2-enamide]", "values": [{"measurement": "Log(IC50, nM)", "setting": "EGFR A767insTLA", "value": "0.83 log(nM)"}, {"measurement": "Log(IC50, nM)", "setting": "EGFR S768dupSVD/C797S", "value": "3.06 log(nM)"}, {"measurement": "Log(IC50, nM)", "setting": "EGFR S768dupSVD/T790M", "value": "2.73 log10(nM)"}, {"measurement": "Log(IC50, nM)", "setting": "EGFR WT; Ba/F3 EGFR WT, comparison line of Table 3", "value": "1.03 log(nM)"}, {"measurement": "Log(IC50, nM)", "setting": "EGFR WT; logarithm of IC50, Ba/F3 cells expressing EGFR WT, Cell Titer Glo, 3 days, Table 2", "value": "1.03 log(nM)"}, {"measurement": "Log(IC50, nM)", "setting": "EGFR N771insSVDNR; logarithm of IC50, first listing in Table 2 (r10)", "value": "0.98 log(nM)"}, {"measurement": "Log(IC50, nM)", "setting": "EGFR N771insSVDNR; logarithm of IC50, second listing in Table 2 (r26)", "value": "1.08 log(nM)"}, {"measurement": "Log(IC50, nM)", "setting": "EGFR P772insDNP", "value": "0.94 log(nM)"}, {"measurement": "Log(IC50, nM)", "setting": "EGFR V769L", "value": "0.98 log(nM)"}, {"measurement": "Log(IC50, nM)", "setting": "EGFR A767insASV", "value": 0.51, "unit": "nM"}, {"measurement": "Log(IC50, nM)", "setting": "EGFR N771insHH", "value": "0.33 log10(nM)"}, {"measurement": "Log(IC50, nM)", "setting": "EGFR H773insAH", "value": "0.88 log10(nM)"}, {"measurement": "Log(IC50, nM)", "setting": "EGFR V769insGSV", "value": "0.98 log(nM)"}, {"measurement": "Log(IC50, nM)", "setting": "EGFR D770del insGY", "value": "0.71 log10(nM)"}, {"measurement": "Log(IC50, nM)", "setting": "EGFR V769insMASVD", "value": "0.88 log10(nM)"}, {"measurement": "Log(IC50, nM)", "setting": "EGFR D770insNPG/T790M", "value": "2.40 log10(nM)"}, {"measurement": "Log(IC50, nM)", "setting": "EGFR D770insNPG/C797S", "value": "2.73 log10(nM)"}, {"measurement": "Log(IC50, nM)", "setting": "EGFR S768I T790M", "value": "0.81 log10(nM)"}, {"measurement": "Log(IC50, nM)", "setting": "EGFR H773L/V774M", "value": "1.41 log(nM)"}, {"measurement": "Log(IC50, nM)", "setting": "EGFR V769insGVV", "value": "1.40 log(nM)"}]}
